Measurements from PubChem BioAssay (NCI).
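GI50 is the concentration that inhibits growth by half. At the TGI there is no net growth.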

Key:
Test in all cases: NCI anticancer screen, dose series, 384-well format
786-0 renal = tested on: 786-0 renal
A498 renal = tested on: A498 renal
A549 NSCLC = tested on: A549 NSCLC
ACHN renal = tested on: ACHN renal
BT-549 breast = tested on: BT-549 breast
CAKI-1 renal = tested on: CAKI-1 renal
CCRF-CEM leukemia = tested on: CCRF-CEM leukemia
COLO 205 colon = tested on: COLO 205 colon
DU-145 prostate = tested on: DU-145 prostate
EKVX NSCLC = tested on: EKVX NSCLC
HCC-2998 colon = tested on: HCC-2998 colon
HCT-116 colon = tested on: HCT-116 colon
HCT-15 colon = tested on: HCT-15 colon
HL-60(TB) leukemia = tested on: HL-60(TB) leukemia
HOP-62 NSCLC = tested on: HOP-62 NSCLC
HOP-92 NSCLC = tested on: HOP-92 NSCLC
HS 578T breast = tested on: HS 578T breast
HT29 colon = tested on: HT29 colon
IGROV1 ovarian = tested on: IGROV1 ovarian
K-562 leukemia = tested on: K-562 leukemia
KM12 colon = tested on: KM12 colon
LOX IMVI melanoma = tested on: LOX IMVI melanoma
MALME-3M melanoma = tested on: MALME-3M melanoma
MCF7 breast = tested on: MCF7 breast
MDA-MB-231 breast = tested on: MDA-MB-231 breast
MDA-MB-435 melanoma = tested on: MDA-MB-435 melanoma
MDA-MB-468 breast = tested on: MDA-MB-468 breast
MOLT-4 leukemia = tested on: MOLT-4 leukemia
NCI-H226 lung = tested on: NCI-H226 lung
NCI-H322M lung = tested on: NCI-H322M lung
NCI-H460 NSCLC = tested on: NCI-H460 NSCLC
NCI-H522 lung = tested on: NCI-H522 lung
NCI/ADR-RES ovarian = tested on: NCI/ADR-RES ovarian
OVCAR-3 ovarian = tested on: OVCAR-3 ovarian
OVCAR-4 ovarian = tested on: OVCAR-4 ovarian
OVCAR-5 ovarian = tested on: OVCAR-5 ovarian
OVCAR-8 ovarian = tested on: OVCAR-8 ovarian
PC-3 prostate = tested on: PC-3 prostate
RPMI-8226 leukemia = tested on: RPMI-8226 leukemia
RXF 393 renal = tested on: RXF 393 renal
SF-268 CNS = tested on: SF-268 CNS
SF-295 CNS = tested on: SF-295 CNS
SF-539 CNS = tested on: SF-539 CNS
SK-MEL-2 melanoma = tested on: SK-MEL-2 melanoma
SK-MEL-28 melanoma = tested on: SK-MEL-28 melanoma
SK-MEL-5 melanoma = tested on: SK-MEL-5 melanoma
SK-OV-3 ovarian = tested on: SK-OV-3 ovarian
SN12C renal = tested on: SN12C renal
SNB-19 CNS = tested on: SNB-19 CNS
SNB-75 CNS = tested on: SNB-75 CNS
SR leukemia = tested on: SR leukemia
SW-620 colon = tested on: SW-620 colon
T-47D breast = tested on: T-47D breast
TK-10 renal = tested on: TK-10 renal
U251 glioblastoma = tested on: U251 glioblastoma
UACC-257 melanoma = tested on: UACC-257 melanoma
UACC-62 melanoma = tested on: UACC-62 melanoma
UO-31 renal = tested on: UO-31 renal

SMILES: CCOc1cc(-c2nncn2C)ccc1Nc1ncc2cc(C)nc(NCC(C)(C)C)c2n1
- GI50 ([…]-0 renal): 0.468 µM
- TGI (786-0 renal): > 100 µM
- GI50 (A498 renal): 0.548 µM
- TGI (A498 renal): > 100 µM
- GI50 (A549 NSCLC): 0.0992 µM
- TGI (A549 NSCLC): > 100 µM
- GI50 (ACHN renal): 1.77 µM
- TGI (ACHN renal): > 100 µM
- GI50 (BT-549 breast): 0.85 µM
- TGI (BT-549 breast): > 100 µM
- GI50 (CAKI-1 renal): > 100 µM
- TGI (CAKI-1 renal): > 100 µM
- GI50 (CCRF-CEM leukemia): 0.0772 µM
- TGI (CCRF-CEM leukemia): 0.278 µM
- GI50 (COLO 205 colon): 0.196 µM
- TGI (COLO 205 colon): > 100 µM
- GI50 (DU-145 prostate): 0.365 µM
- TGI (DU-145 prostate): > 100 µM
- GI50 (EKVX NSCLC): 2.05 µM
- TGI (EKVX NSCLC): > 100 µM
- GI50 (HCC-2998 colon): > 100 µM
- TGI (HCC-2998 colon): > 100 µM
- GI50 (HCT-116 colon): 0.062 µM
- TGI (HCT-116 colon): > 100 µM
- GI50 (HCT-15 colon): 0.0738 µM
- TGI (HCT-15 colon): > 100 µM
- GI50 (HL-60(TB) leukemia): 0.266 µM
- TGI (HL-60(TB) leukemia): 0.587 µM
- GI50 (HOP-62 NSCLC): 0.23 µM
- TGI (HOP-62 NSCLC): > 100 µM
- GI50 (HOP-92 NSCLC): > 100 µM
- TGI (HOP-92 NSCLC): > 100 µM
- GI50 (HS 578T breast): 0.188 µM
- TGI (HS 578T breast): > 100 µM
- GI50 (HT29 colon): > 100 µM
- TGI (HT29 colon): > 100 µM
- GI50 (IGROV1 ovarian): > 100 µM
- TGI (IGROV1 ovarian): > 100 µM
- GI50 (K-562 leukemia): 0.918 µM
- TGI (K-562 leukemia): > 100 µM
- GI50 (KM12 colon): 0.0967 µM
- TGI (KM12 colon): > 100 µM
- GI50 (LOX IMVI melanoma): 0.179 µM
- TGI (LOX IMVI melanoma): > 100 µM
- GI50 (MALME-3M melanoma): 37.1 µM
- TGI (MALME-3M melanoma): > 100 µM
- TGI (MCF7 breast): > 100 µM
- GI50 (MDA-MB-231 breast): 47.8 µM
- TGI (MDA-MB-231 breast): > 100 µM
- GI50 (MDA-MB-435 melanoma): > 100 µM
- TGI (MDA-MB-435 melanoma): > 100 µM
- GI50 (MDA-MB-468 breast): 0.578 µM
- TGI (MDA-MB-468 breast): 7.02 µM
- GI50 (MOLT-4 leukemia): 0.0223 µM
- TGI (MOLT-4 leukemia): 0.0463 µM
- GI50 (NCI-H226 lung): 15.9 µM
- TGI (NCI-H226 lung): > 100 µM
- GI50 (NCI-H322M lung): > 100 µM
- TGI (NCI-H322M lung): > 100 µM
- GI50 (NCI-H460 NSCLC): 0.169 µM
- TGI (NCI-H460 NSCLC): > 100 µM
- GI50 (NCI-H522 lung): 0.669 µM
- TGI (NCI-H522 lung): > 100 µM
- GI50 (NCI/ADR-RES ovarian): 0.618 µM
- TGI (NCI/ADR-RES ovarian): > 100 µM
- GI50 (OVCAR-3 ovarian): 0.969 µM
- TGI (OVCAR-3 ovarian): > 100 µM
- GI50 (OVCAR-4 ovarian): > 100 µM
- TGI (OVCAR-4 ovarian): > 100 µM
- GI50 (OVCAR-5 ovarian): 1.33 µM
- TGI (OVCAR-5 ovarian): > 100 µM
- GI50 (OVCAR-8 ovarian): 0.377 µM
- TGI (OVCAR-8 ovarian): > 100 µM
- GI50 (PC-3 prostate): 18 µM
- TGI (PC-3 prostate): > 100 µM
- GI50 (RPMI-8226 leukemia): 0.3 µM
- TGI (RPMI-8226 leukemia): 3.77 µM
- GI50 (RXF 393 renal): 1.34 µM
- TGI (RXF 393 renal): 99.1 µM
- GI50 (SF-268 CNS): 10.5 µM
- TGI (SF-268 CNS): > 100 µM
- GI50 (SF-295 CNS): > 100 µM
- TGI (SF-295 CNS): > 100 µM
- GI50 (SF-539 CNS): 0.351 µM
- TGI (SF-539 CNS): > 100 µM
- GI50 (SK-MEL-2 melanoma): > 100 µM
- TGI (SK-MEL-2 melanoma): > 100 µM
- GI50 (SK-MEL-28 melanoma): > 100 µM
- TGI (SK-MEL-28 melanoma): > 100 µM
- GI50 (SK-MEL-5 melanoma): 0.461 µM
- TGI (SK-MEL-5 melanoma): > 100 µM
- GI50 (SK-OV-3 ovarian): > 100 µM
- TGI (SK-OV-3 ovarian): > 100 µM
- GI50 (SN12C renal): > 100 µM
- TGI (SN12C renal): > 100 µM
- GI50 (SNB-19 CNS): 86.7 µM
- TGI (SNB-19 CNS): > 100 µM
- GI50 (SNB-75 CNS): > 100 µM
- TGI (SNB-75 CNS): > 100 µM
- GI50 (SR leukemia): 0.139 µM
- TGI (SR leukemia): 0.333 µM
- GI50 (SW-620 colon): 0.304 µM
- TGI (SW-620 colon): > 100 µM
- GI50 (T-47D breast): 7.93 µM
- TGI (T-47D breast): > 100 µM
- GI50 (TK-10 renal): 3.89 µM
- TGI (TK-10 renal): > 100 µM
- GI50 (U251 glioblastoma): 0.46 µM
- TGI (U251 glioblastoma): > 100 µM
- GI50 (UACC-257 melanoma): > 100 µM
- TGI (UACC-257 melanoma): > 100 µM
- GI50 (UACC-62 melanoma): > 100 µM
- TGI (UACC-62 melanoma): > 100 µM
- GI50 (UO-31 renal): 0.514 µM
- TGI (UO-31 renal): > 100 µM
